According to US20100022648A1, “ORAL USE OF AT LEAST ONE MONOUNSATURATED FATTY ACID FOR HAIR IMPROVEMENT” (L'OREAL, priority 2006, published 2010):
Marks after values point to notes of the source that are not given here.

System: dermal fibroblasts
Experiment: Formation of glycation products in cultures of dermal fibroblasts (Dot Blot immunodetection, densitometric analysis)
Format: cell-based
Details: culture of dermal fibroblasts; for % GP relative to the control: GP = glycation products, Aminoguanidine 1 mg/ml, Petroselinic acid 0.885 mM, control = 100, p < 0.01; for decrease in the formation of glycation products relative to the control: same concentrations as Table 1
Experimental: Dermal fibroblasts are cultured by the usual techniques that are well known by a person skilled in the art.
The glycation products are quantified by densitometric analysis of the spots in immunodetection of the glycation products (Dot Blot method), relative to a control (culture of fibroblasts without addition of the product).
Thus, aminoguanidine reduces the amount of glycation product relative to the control by 58%.
In another case, the culture of fibroblasts is supplemented with petroselinic acid.

Row | Compound | % GP relative to the control | % GP relative to the control (listed as aminoguanidine) | decrease in the formation of glycation products relative to the control | % GP relative to the control (listed as petroselinic acid)
1 | N=C(N)NN [Aminoguanidine, aminoguanidine] | 42* % | 42% | 58% | –
2 | CCCCCCCCCCC/C=C\CCCCC(=O)O [Petroselinic acid, petroselinic acid] | 73* % | – | 27% | 73%
